Test results as given in US9604982B2, “P2X7 modulators” (Janssen Pharmaceutica NV, priority 2013, dated 2017).

Biological target: P2X7 (Homo sapiens (Human), UniProt Q99572)
Test: P2X7 antagonism in human peripheral blood mononuclear cells (PBMCs), IL-1β release after LPS + Bz-ATP (ELISA)
Assay type: cell-based
Details: 0.5 mM Bz-ATP; for remaining activity at 10 µM: P2X7, Table 2, 10 μM compound, read-out: PBMC 10 μM (% control); for PBMC 10 μM (% control): Table 3 (additional runs), 10 μM compound
Method: Human blood was collected using a blood donor program. […] Cells were incubated for an additional 1.5 hours. […] Data are analyzed and graphed on Graphpad Prism 5. […] The IC50 for each compound is then uploaded into 3DX.

P2X7, sequence (Q99572 whole entry): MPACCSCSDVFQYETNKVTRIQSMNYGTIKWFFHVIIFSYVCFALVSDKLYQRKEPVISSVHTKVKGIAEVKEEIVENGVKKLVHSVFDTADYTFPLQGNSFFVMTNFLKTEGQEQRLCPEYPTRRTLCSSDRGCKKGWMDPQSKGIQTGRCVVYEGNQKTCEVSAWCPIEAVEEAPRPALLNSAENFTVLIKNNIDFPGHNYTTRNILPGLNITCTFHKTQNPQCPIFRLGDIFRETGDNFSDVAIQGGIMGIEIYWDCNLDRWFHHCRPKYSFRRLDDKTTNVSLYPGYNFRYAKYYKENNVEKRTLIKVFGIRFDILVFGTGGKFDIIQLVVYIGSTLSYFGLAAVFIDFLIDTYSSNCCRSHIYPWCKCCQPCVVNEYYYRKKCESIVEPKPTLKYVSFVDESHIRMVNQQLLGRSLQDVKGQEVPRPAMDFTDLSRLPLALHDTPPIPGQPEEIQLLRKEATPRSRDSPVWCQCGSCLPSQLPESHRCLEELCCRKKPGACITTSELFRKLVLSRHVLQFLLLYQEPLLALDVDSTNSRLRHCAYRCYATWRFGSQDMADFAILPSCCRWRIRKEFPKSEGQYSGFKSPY

remaining activity at 10 µM | PBMC 10 μM (% control) | SMILES
-19.2% | – | Cc1nc2c(c(-c3ccn[nH]3)n1)C[C@H](C)N(C(=O)c1ccc(F)cc1F)C2 (single isomer, unassigned) [Example 95, (S*)-(2,4-difluorophenyl)(2,6-dimethyl-4-(1H-pyrazol-5-yl)-5,6-dihydropyrido[3,4-d]pyrimidin-7(8H)-yl)methanone]
16.4% | – | CCc1nc2c(c(-c3ccn[nH]3)n1)C[C@@H](C)N(C(=O)c1cccc(C(F)(F)F)c1Cl)C2 (single isomer, unassigned) [Example 99, (R*)-(2-chloro-3-(trifluoromethyl)phenyl)(2-ethyl-6-methyl-4-(1H-pyrazol-5-yl)-5,6-dihydropyrido[3,4-d]pyrimidin-7(8H)-yl)methanone]
4% | 4.0 % control | CCc1nc2c(c(-c3ccn[nH]3)n1)C[C@H](C)N(C(=O)c1cccc(C(F)(F)F)c1Cl)C2 (single isomer, unassigned) [Example 100, (S*)-(2-chloro-3-(trifluoromethyl)phenyl)(2-ethyl-6-methyl-4-(1H-pyrazol-5-yl)-5,6-dihydropyrido[3,4-d]pyrimidin-7(8H)-yl)methanone]
11.7% | – | CC(C)c1nc2c(c(-c3ccn[nH]3)n1)C[C@@H](C)N(C(=O)c1cccc(C(F)(F)F)c1Cl)C2 (single isomer, unassigned) [Example 102, (R*)-(2-chloro-3-(trifluoromethyl)phenyl)(2-isopropyl-6-methyl-4-(1H-pyrazol-5-yl)-5,6-dihydropyrido[3,4-d]pyrimidin-7(8H)-yl)methanone]
6.3% | 6.3 % control | CC(C)c1nc2c(c(-c3ccn[nH]3)n1)C[C@H](C)N(C(=O)c1cccc(C(F)(F)F)c1Cl)C2 (single isomer, unassigned) [Example 103, (S*)-(2-chloro-3-(trifluoromethyl)phenyl)(2-isopropyl-6-methyl-4-(1H-pyrazol-5-yl)-5,6-dihydropyrido[3,4-d]pyrimidin-7(8H)-yl)methanone]
-2.1% | −2.1 % control | C[C@@H]1c2ncnc(-c3ccn[nH]3)c2CCN1C(=O)c1cccc(C(F)(F)F)c1Cl (single isomer, unassigned) [Example 113, (R*)-(2-chloro-3-(trifluoromethyl)phenyl)(8-methyl-4-(1H-pyrazol-5-yl)-5,6-dihydropyrido[3,4-d]pyrimidin-7(8H)-yl)methanone]
-0.5% | −0.5 % control | C[C@H]1c2ncnc(-c3ccn[nH]3)c2CCN1C(=O)c1cccc(C(F)(F)F)c1Cl (single isomer, unassigned) [Example 114, (S*)-(2-chloro-3-(trifluoromethyl)phenyl)(8-methyl-4-(1H-pyrazol-5-yl)-5,6-dihydropyrido[3,4-d]pyrimidin-7(8H)-yl)methanone]
-4.4% | −4.4 % control | C[C@@H]1c2ncnc(-c3ccn[nH]3)c2CCN1C(=O)c1ccc(F)c(C(F)(F)F)c1Cl (single isomer, unassigned) [Example 116, (R*)-(2-chloro-4-fluoro-3-(trifluoromethyl)phenyl)(8-methyl-4-(1H-pyrazol-5-yl)-5,6-dihydropyrido[3,4-d]pyrimidin-7(8H)-yl)methanone]
0.1% | 0.1 % control | C[C@H]1c2ncnc(-c3ccn[nH]3)c2CCN1C(=O)c1ccc(F)c(C(F)(F)F)c1Cl (single isomer, unassigned) [Example 117, (S*)-(2-chloro-4-fluoro-3-(trifluoromethyl)phenyl)(8-methyl-4-(1H-pyrazol-5-yl)-5,6-dihydropyrido[3,4-d]pyrimidin-7(8H)-yl)methanone]
